Assay: Cytotoxicity against human HeLa cells expressing YFP parkin assessed as highest safety dose by DAPI staining analysis
Assay type: toxicity, cell-based
Conditions: read-out: Activity

Structure (SMILES) | MNTC [µM]
Fc1cccc2c1CC[C@H](N1C[C@H]3COC[C@H]3C1)[C@H]2Nc1ncnc2[nH]c(C3CC3)cc12 (single isomer, unassigned) | 25
C[C@@H]1CN([C@@H]2CCc3ccccc3[C@H]2Nc2ncnc3[nH]c(C4CC4)cc23)C[C@H](C)O1 (single isomer, unassigned) | 25
Fc1ccc2c(c1)CC[C@H](N1C[C@H]3COC[C@H]3C1)[C@H]2Nc1ncnc2[nH]c(C(F)(F)F)cc12 (single isomer, unassigned) | 25
CO[C@H]1CCN([C@@H]2COc3ccccc3[C@H]2Nc2ncnc3[nH]c(C(F)(F)F)cc23)C1 | 25
c1ccc2c(c1)OC[C@@H](N1C[C@H]3COC[C@H]3C1)[C@@H]2Nc1ncnc2[nH]c(C3CC3)cc12 (single isomer, unassigned) | 25
C[C@@H]1CN([C@@H]2COc3cc(F)ccc3[C@H]2Nc2ncnc3[nH]c(C(F)(F)F)cc23)CCO1 | 25
FC(F)(F)c1cc2c(N[C@H]3c4ccccc4CC[C@H]3C3CCOCC3)ncnc2[nH]1 | 25
OC[C@H]1CN([C@H]2COc3ccccc3[C@@H]2Nc2ncnc3[nH]c(C(F)(F)F)cc23)CCO1 (single isomer, unassigned) | 25
c1ccc2c(c1)OC[C@H](N1C[C@H]3COC[C@H]3C1)[C@H]2Nc1ncnc2[nH]c(C3CC3)cc12 (single isomer, unassigned) | 25
C[C@@H]1COCCN1[C@H]1CCc2ccccc2[C@@H]1Nc1ncnc2[nH]c(C3CC3)cc12 (single isomer, unassigned) | 2.8
FC(F)(F)c1cc2c(N[C@@H]3c4ccccc4OC[C@H]3N3CCOCC3)ncnc2[nH]1 | 25
C[C@@H]1COCCN1[C@@H]1CCc2ccccc2[C@H]1Nc1ncnc2[nH]c(C(F)(F)F)cc12 (single isomer, unassigned) | 25
CN1CCN([C@H]2CCc3ccccc3[C@@H]2Nc2ncnc3[nH]c(C(F)(F)F)cc23)CC1 (single isomer, unassigned) | 25
C[C@H]1CN([C@@H]2COc3ccccc3[C@H]2Nc2ncnc3[nH]c(C4CC4)cc23)CCO1 | 25
CO[C@H]1CCN([C@@H]2COc3ccccc3[C@H]2Nc2ncnc3[nH]c(C4CC4)cc23)C1 | 25
c1ccc2c(c1)OC[C@@H](N1CCOCC1)[C@H]2Nc1ncnc2[nH]c(C3CC3)cc12 | 25
FC1COCCC1[C@H]1COc2ccccc2[C@@H]1Nc1ncnc2[nH]c(C(F)(F)F)cc12 (single isomer, unassigned) | 25
c1ccc2c(c1)CC[C@@H](C1CCOCC1)[C@@H]2Nc1ncnc2[nH]c(C3CC3)cc12 | 25
c1ccc2c(c1)OC[C@@H](C1CCOCC1)[C@H]2Nc1ncnc2[nH]c(C3CC3)cc12 | 25
[2H]C([2H])([2H])OC1CN([C@@H]2COc3ccccc3[C@H]2Nc2ncnc3[nH]c(C(F)(F)F)cc23)C1 | 25
C[C@@H]1CN([C@@H]2CCc3ccccc3[C@H]2Nc2ncnc3[nH]c(C(F)(F)F)cc23)CCO1 (single isomer, unassigned) | 25
FC(F)(F)c1cc2c(N[C@H]3c4ccccc4OC[C@H]3C3CCOCC3)ncnc2[nH]1 | 8.3
OC[C@@H]1CN([C@H]2COc3ccccc3[C@@H]2Nc2ncnc3[nH]c(C(F)(F)F)cc23)CCO1 (single isomer, unassigned) | 25
C[C@@H]1CN([C@@H]2COc3cc(F)ccc3[C@H]2Nc2ncnc3[nH]c(C4CC4)cc23)CCO1 | 25

Structure (SMILES) | MNTC [µM]
CN1CCN([C@@H]2CCc3ccccc3[C@H]2Nc2ncnc3[nH]c(C(F)(F)F)cc23)CC1 (single isomer, unassigned) | 25
c1ccc2c(c1)OC[C@H](C1CCOCC1)[C@@H]2Nc1ncnc2[nH]c(C3CC3)cc12 | 25
Fc1ccc2c(c1)OC[C@@H](N1CCOCC1)[C@@H]2Nc1ncnc2[nH]c(C3CC3)cc12 (single isomer, unassigned) | 25
c1ccc2c(c1)CC[C@@H](C1CCOCC1)[C@H]2Nc1ncnc2[nH]c(C3CC3)cc12 | 25
C[C@H]1CN([C@@H]2CCc3ccccc3[C@H]2Nc2ncnc3[nH]c(C(F)(F)F)cc23)CCO1 (single isomer, unassigned) | 25
Fc1ccc2c(c1)CC[C@@H](N1C[C@@H]3COC[C@H]3C1)[C@@H]2Nc1ncnc2[nH]c(C(F)(F)F)cc12 | 25
C[C@@H]1CN([C@H]2COc3ccccc3[C@@H]2Nc2ncnc3[nH]c(C(F)(F)F)cc23)CCO1 | 25
FC(F)(F)c1cc2c(N[C@H]3c4ccccc4OC[C@H]3N3CCOCC3)ncnc2[nH]1 | 25
C[C@@H]1CN([C@H]2CCc3ccccc3[C@@H]2Nc2ncnc3[nH]c(C4CC4)cc23)C[C@H](C)O1 (single isomer, unassigned) | 25
Fc1ccc2c(c1)OC[C@H](N1C[C@H]3COC[C@H]3C1)[C@H]2Nc1ncnc2[nH]c(C(F)(F)F)cc12 (single isomer, unassigned) | 25
Fc1cccc2c1CC[C@@H](N1C[C@H]3COC[C@H]3C1)[C@@H]2Nc1ncnc2[nH]c(C3CC3)cc12 (single isomer, unassigned) | 25
Fc1cccc2c1CC[C@H](N1C[C@H]3COC[C@H]3C1)[C@H]2Nc1ncnc2[nH]c(C(F)(F)F)cc12 (single isomer, unassigned) | 25
C[C@H]1CN([C@@H]2COc3cc(F)ccc3[C@H]2Nc2ncnc3[nH]c(C(F)(F)F)cc23)CCO1 | 25
c1ccc2c(c1)OCC(N1CC3CCOC3C1)C2Nc1ncnc2[nH]c(C3CC3)cc12 (single isomer, unassigned) | 25
COC[C@H]1CCCN1[C@H]1COc2ccccc2[C@@H]1Nc1ncnc2[nH]c(C(F)(F)F)cc12 (single isomer, unassigned) | 25
c1ccc2c(c1)CC[C@H](C1CCOCC1)[C@@H]2Nc1ncnc2[nH]c(C3CC3)cc12 | 25
CO[C@@H]1CCN([C@H]2COc3ccccc3[C@@H]2Nc2ncnc3[nH]c(C4CC4)cc23)C1 | 25
Fc1ccc2c(c1)CC[C@@H](N1CCOCC1)[C@@H]2Nc1ncnc2[nH]c(C3CC3)cc12 | 25
C[S@@](=N)(=O)C1CN(C2COc3ccccc3C2Nc2ncnc3[nH]c(C(F)(F)F)cc23)C1 (single isomer, unassigned) | 25
c1ccc2c(c1)CC[C@@H](N1C[C@H]3COC[C@@H]3C1)[C@@H]2Nc1ncnc2[nH]c(C3CC3)cc12 | 25
C[C@H]1COCCN1[C@@H]1CCc2ccccc2[C@H]1Nc1ncnc2[nH]c(C(F)(F)F)cc12 (single isomer, unassigned) | 25
FC(F)OC1CN([C@H]2COc3ccccc3[C@@H]2Nc2ncnc3[nH]c(C(F)(F)F)cc23)C1 | 25
C[C@@H]1CN([C@H]2CCc3ccccc3[C@@H]2Nc2ncnc3[nH]c(C(F)(F)F)cc23)C[C@H](C)O1 (single isomer, unassigned) | 25
Fc1ccc2c(c1)OC[C@H](N1C[C@@H]3COC[C@H]3C1)[C@H]2Nc1ncnc2[nH]c(C(F)(F)F)cc12 (single isomer, unassigned) | 25

Structure (SMILES) | MNTC [µM]
CS(=N)(=O)C1CN(C2COc3ccccc3C2Nc2ncnc3[nH]c(C(F)(F)F)cc23)C1 (stereo not given) | 25
c1ccc2c(c1)CC[C@@H](N1C[C@H]3COC[C@H]3C1)[C@@H]2Nc1ncnc2[nH]c(C3CC3)cc12 (single isomer, unassigned) | 25
C[C@H]1CN([C@H]2COc3cc(F)ccc3[C@@H]2Nc2ncnc3[nH]c(C(F)(F)F)cc23)CCO1 | 25
FC(F)(F)c1cc2c(N[C@H]3c4ccccc4CC[C@@H]3C3CCOCC3)ncnc2[nH]1 (single isomer, unassigned) | 25
OC(C1CCOCC1)C1COc2ccccc2C1Nc1ncnc2[nH]c(C(F)(F)F)cc12 (single isomer, unassigned) | 25
FC(F)(F)c1cc2c(N[C@@H]3c4ccccc4CC[C@@H]3C3CCOCC3)ncnc2[nH]1 | 25
Fc1cccc2c1CC[C@@H](N1C[C@H]3COC[C@H]3C1)[C@@H]2Nc1ncnc2[nH]c(C(F)(F)F)cc12 (single isomer, unassigned) | 25
COC[C@@H]1CCCN1[C@H]1COc2ccccc2[C@@H]1Nc1ncnc2[nH]c(C(F)(F)F)cc12 (single isomer, unassigned) | 25
C[C@@H]1CN([C@@H]2CCc3ccccc3[C@H]2Nc2ncnc3[nH]c(C(F)(F)F)cc23)C[C@H](C)O1 (single isomer, unassigned) | 25
C[C@@H]1CN([C@H]2COc3ccccc3[C@@H]2Nc2ncnc3[nH]c(C4CC4)cc23)CCO1 | 25
C[S@](=N)(=O)C1CN([C@H]2COc3ccccc3[C@@H]2Nc2ncnc3[nH]c(C(F)(F)F)cc23)C1 (single isomer, unassigned) | 25
FC(F)(F)c1cc2c(N[C@H]3c4ccccc4OC[C@@H]3N3CCOCC3)ncnc2[nH]1 (single isomer, unassigned) | 25
C[C@H]1CN([C@@H]2CCc3ccccc3[C@H]2Nc2ncnc3[nH]c(C4CC4)cc23)CCO1 (single isomer, unassigned) | 25
Fc1ccc2c(c1)OC[C@H](N1C[C@H]3COC[C@@H]3C1)[C@H]2Nc1ncnc2[nH]c(C(F)(F)F)cc12 (single isomer, unassigned) | 25
C[C@@H]1CN([C@@H]2CCc3ccccc3[C@H]2Nc2ncnc3[nH]c(C4CC4)cc23)CCO1 (single isomer, unassigned) | 25
Fc1ccc2c(c1)OC[C@H](N1CCOCC1)[C@H]2Nc1ncnc2[nH]c(C3CC3)cc12 | 25
C[C@H]1CN([C@H]2COc3ccccc3[C@@H]2Nc2ncnc3[nH]c(C(F)(F)F)cc23)CCO1 | 25
OC(C1CCOCC1)[C@H]1COc2ccccc2[C@@H]1Nc1ncnc2[nH]c(C(F)(F)F)cc12 (stereo not given in full) | 25
FC(F)(F)c1cc2c(N[C@@H]3c4ccccc4OC[C@H]3C3CCCOC3)ncnc2[nH]1 (stereo not given in full) | 25
FC(F)(F)c1cc2c(N[C@@H]3c4ccccc4CC[C@H]3C3CCOCC3)ncnc2[nH]1 (single isomer, unassigned) | 25
C[C@@H]1CN([C@H]2COc3cc(F)ccc3[C@@H]2Nc2ncnc3[nH]c(C(F)(F)F)cc23)CCO1 | 25
Fc1ccc2c(c1)OC[C@H](N1C[C@H]3COC[C@H]3C1)[C@H]2Nc1ncnc2[nH]c(C3CC3)cc12 (single isomer, unassigned) | 25
